Measured values as given in PubChem BioAssay AID1963971 (Molecular Pharmacology Branch, DTP, NCI, 2024).
pIC50: −log10 of the molar value.

Tested on: 953936-095-R-J2-PDC spheroids with HUVEC/MSC, viability
Assay: Anticancer human tumor 953936-095-R-J2-PDC patient-derived cervical squamous cell carcinoma cell line growth inhibition [PI3K]
Details: for pIC50: curve of first compound; for viability, T/C: stronger effect = lower value
Summary of the method: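 Viability of mixed-cell spheroids was determined after exposure to pairwise combinations, one partner being inavolisib, alpelisib, duvelisib or copanlisib. Highest tested concentration matched clinical Cmax where known and 10 microM where not, descending in half-log steps.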

[1] = second compound 0.00316 µM, first compound 0.0316 µM
[2] = second compound 0.00316 µM, first compound 0.1 µM
[3] = second compound 0.00316 µM, first compound 0.316 µM
[4] = second compound 0.00316 µM, first compound 1 µM
[5] = second compound 0.01 µM, first compound 0.0316 µM
[6] = second compound 0.01 µM, first compound 0.1 µM
[7] = second compound 0.01 µM, first compound 0.316 µM
[8] = second compound 0.01 µM, first compound 1 µM
[9] = second compound 0.0316 µM, first compound 0.0316 µM
[10] = second compound 0.0316 µM, first compound 0.1 µM
[11] = second compound 0.0316 µM, first compound 0.316 µM
[12] = second compound 0.0316 µM, first compound 1 µM
[13] = second compound 0.1 µM, first compound 0.0316 µM
[14] = second compound 0.1 µM, first compound 0.1 µM
[15] = second compound 0.1 µM, first compound 0.316 µM
[16] = second compound 0.1 µM, first compound 1 µM
[17] = second compound 0.316 µM, first compound 0.0316 µM
[18] = second compound 0.316 µM, first compound 0.1 µM
[19] = second compound 0.316 µM, first compound 0.316 µM
[20] = second compound 0.316 µM, first compound 1 µM
[21] = second compound 1 µM, first compound 0.0316 µM
[22] = second compound 1 µM, first compound 0.1 µM
[23] = second compound 1 µM, first compound 0.316 µM
[24] = second compound 1 µM, first compound 1 µM
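Further: spheroids exposed to compounds for seven days before read-out.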

Compound Cn1cnc2c(F)c(Nc3ccc(Br)cc3Cl)c(C(=O)NOCCO)cc21 + COc1c(OCCCN2CCOCC2)ccc2c3n(c(=NC(=O)c4cnc(N)nc4)nc12)CCN3 has a pIC50 (second compound 0.00316 µM) of 6.43, a pIC50 (second compound 0.01 µM) of 7.09 and a pIC50 (second compound 0.0316 µM) of over 8.02. It also gave a pIC50 (second compound 0.1 µM) of over 8.02, a pIC50 (second compound 0.316 µM) of over 8.02 and a pIC50 (second compound 1 µM) of over 8.02. It also gave a viability, T/C (second compound 0.00316 µM, first compound 0.00949 µM) of 65.8%, a viability, T/C (second compound 0.00316 µM, first compound 0.03 µM) of 69.6% and a viability, T/C (second compound 0.00316 µM, first compound 0.0949 µM) of 52%. The viability, T/C (second compound 0.00316 µM, first compound 0.3 µM) was 59.1%, the viability, T/C (second compound 0.00316 µM, first compound 0.949 µM) was 36.6% and the viability, T/C (second compound 0.00316 µM, first compound 3 µM) was 25.4%. The viability, T/C (second compound 0.01 µM, first compound 0.00949 µM) was 63.4%, the viability, T/C (second compound 0.01 µM, first compound 0.03 µM) was 58.8% and the viability, T/C (second compound 0.01 µM, first compound 0.0949 µM) was 45.9%. The viability, T/C (second compound 0.01 µM, first compound 0.3 µM) was 42.1%, the viability, T/C (second compound 0.01 µM, first compound 0.949 µM) was 26.2% and the viability, T/C (second compound 0.01 µM, first compound 3 µM) was 18.3%. For the same compound, the viability, T/C (second compound 0.0316 µM, first compound 0.00949 µM) was 36.7%, the viability, T/C (second compound 0.0316 µM, first compound 0.03 µM) was 33.1% and the viability, T/C (second compound 0.0316 µM, first compound 0.0949 µM) was 19.7%. The viability, T/C (second compound 0.0316 µM, first compound 0.3 µM) was 15.4%, the viability, T/C (second compound 0.0316 µM, first compound 0.949 µM) was 7.92% and the viability, T/C (second compound 0.0316 µM, first compound 3 µM) was 4.93%. It also gave a viability, T/C (second compound 0.1 µM, first compound 0.00949 µM) of 12.6%, a viability, T/C (second compound 0.1 µM, first compound 0.03 µM) of 8.91% and a viability, T/C (second compound 0.1 µM, first compound 0.0949 µM) of 5.78%. For the same compound, the viability, T/C (second compound 0.1 µM, first compound 0.3 µM) was 3.64%, the viability, T/C (second compound 0.1 µM, first compound 0.949 µM) was 2.7% and the viability, T/C (second compound 0.1 µM, first compound 3 µM) was 0.27%. It also gave a viability, T/C (second compound 0.316 µM, first compound 0.00949 µM) of 3.5%, a viability, T/C (second compound 0.316 µM, first compound 0.03 µM) of 2.08% and a viability, T/C (second compound 0.316 µM, first compound 0.0949 µM) of 1.09%. The viability, T/C (second compound 0.316 µM, first compound 0.3 µM) was 0.45%, the viability, T/C (second compound 0.316 µM, first compound 0.949 µM) was 0.15% and the viability, T/C (second compound 0.316 µM, first compound 3 µM) was 0.17%. The viability, T/C (second compound 1 µM, first compound 0.00949 µM) was 0.66%, the viability, T/C (second compound 1 µM, first compound 0.03 µM) was 0.31% and the viability, T/C (second compound 1 µM, first compound 0.0949 µM) was 0.21%. The viability, T/C (second compound 1 µM, first compound 0.3 µM) was 0.16%, the viability, T/C (second compound 1 µM, first compound 0.949 µM) was 0.15% and the viability, T/C (second compound 1 µM, first compound 3 µM) was 0.2%.
CCN1CCN(Cc2ccc(Nc3ncc(F)c(-c4cc(F)c5nc(C)n(C(C)C)c5c4)n3)nc2)CC1 + COc1c(OCCCN2CCOCC2)ccc2c3n(c(=NC(=O)c4cnc(N)nc4)nc12)CCN3 was tested, and the pIC50 (second compound 0.00316 µM) was under 6.00, the pIC50 (second compound 0.01 µM) was under 6.00 and the pIC50 (second compound 0.0316 µM) was over 8.50. It also gave a pIC50 (second compound 0.1 µM) of over 8.50, a pIC50 (second compound 0.316 µM) of over 8.50 and a pIC50 (second compound 1 µM) of over 8.50. It also gave a viability, T/C (second compound 0.00316 µM, first compound 0.00316 µM) of 92.5%, a viability, T/C (second compound 0.00316 µM, first compound 0.01 µM) of 91.2% and a viability, T/C [1] of 87%. It also gave a viability, T/C [2] of 91.7%, a viability, T/C [3] of 76.5% and a viability, T/C [4] of 67.7%. It also gave a viability, T/C (second compound 0.01 µM, first compound 0.00316 µM) of 70.8%, a viability, T/C (second compound 0.01 µM, first compound 0.01 µM) of 75% and a viability, T/C [5] of 69.7%. For the same compound, the viability, T/C [6] was 60.7%, the viability, T/C [7] was 56% and the viability, T/C [8] was 55.5%. For the same compound, the viability, T/C (second compound 0.0316 µM, first compound 0.00316 µM) was 40.5%, the viability, T/C (second compound 0.0316 µM, first compound 0.01 µM) was 40.9% and the viability, T/C [9] was 37.7%. The viability, T/C [10] was 33.1%, the viability, T/C [11] was 35.9% and the viability, T/C [12] was 31.7%. The viability, T/C (second compound 0.1 µM, first compound 0.00316 µM) was 20%, the viability, T/C (second compound 0.1 µM, first compound 0.01 µM) was 17.5% and the viability, T/C [13] was 15.2%. For the same compound, the viability, T/C [14] was 13.8%, the viability, T/C [15] was 14.2% and the viability, T/C [16] was 15.6%. It also gave a viability, T/C (second compound 0.316 µM, first compound 0.00316 µM) of 6%, a viability, T/C (second compound 0.316 µM, first compound 0.01 µM) of 5.63% and a viability, T/C [17] of 4.91%. The viability, T/C [18] was 5.77%, the viability, T/C [19] was 4.23% and the viability, T/C [20] was 6.22%. It also gave a viability, T/C (second compound 1 µM, first compound 0.00316 µM) of 1.99%, a viability, T/C (second compound 1 µM, first compound 0.01 µM) of 1.61% and a viability, T/C [21] of 1.43%. The viability, T/C [22] was 1.48%, the viability, T/C [23] was 1.73% and the viability, T/C [24] was 2.54%.
In the case of Cn1nccc1Nc1nccc(-c2ccn(C(CO)c3ccc(Cl)c(F)c3)c(=O)c2)n1 (stereo unspecified) + CC(Nc1ccc2c(c1)OCCn1cc(N3C(=O)OCC3C(F)F)nc1-2)C(N)=O, the pIC50 (second compound 0.00316 µM) was under 5.00, the pIC50 (second compound 0.01 µM) was under 5.00 and the pIC50 (second compound 0.0316 µM) was under 5.00. It also gave a pIC50 (second compound 0.1 µM) of 6.42, a pIC50 (second compound 0.316 µM) of over 7.50 and a pIC50 (second compound 1 µM) of over 7.50. It also gave a viability, T/C [1] of 86.2%, a viability, T/C [2] of 87% and a viability, T/C [3] of 93.8%. It also gave a viability, T/C [4] of 95.1%, a viability, T/C (second compound 0.00316 µM, first compound 3.16 µM) of 80.4% and a viability, T/C (second compound 0.00316 µM, first compound 10 µM) of 71.7%. It also gave a viability, T/C [5] of 84.4%, a viability, T/C [6] of 94% and a viability, T/C [7] of 88.8%. The viability, T/C [8] was 77.1%, the viability, T/C (second compound 0.01 µM, first compound 3.16 µM) was 78.8% and the viability, T/C (second compound 0.01 µM, first compound 10 µM) was 70%. It also gave a viability, T/C [9] of 75.2%, a viability, T/C [10] of 68.8% and a viability, T/C [11] of 70.1%. For the same compound, the viability, T/C [12] was 72%, the viability, T/C (second compound 0.0316 µM, first compound 3.16 µM) was 65.1% and the viability, T/C (second compound 0.0316 µM, first compound 10 µM) was 61.9%. The viability, T/C [13] was 62.1%, the viability, T/C [14] was 52.7% and the viability, T/C [15] was 51.3%. The viability, T/C [16] was 46.5%, the viability, T/C (second compound 0.1 µM, first compound 3.16 µM) was 47.8% and the viability, T/C (second compound 0.1 µM, first compound 10 µM) was 40.1%. The viability, T/C [17] was 36.3%, the viability, T/C [18] was 32.8% and the viability, T/C [19] was 31%. The viability, T/C [20] was 28.4%, the viability, T/C (second compound 0.316 µM, first compound 3.16 µM) was 24% and the viability, T/C (second compound 0.316 µM, first compound 10 µM) was 19.5%. It also gave a viability, T/C [21] of 21.9%, a viability, T/C [22] of 20.9% and a viability, T/C [23] of 18%. It also gave a viability, T/C [24] of 15.1%, a viability, T/C (second compound 1 µM, first compound 3.16 µM) of 12.6% and a viability, T/C (second compound 1 µM, first compound 10 µM) of 8.88%.
